The test system of one assay is NetB toxin. It is filed as cell-based, Clostridium perfringens strain 25037-CP01.
The test system of a further assay is netB gene. It is filed as cell-based, Clostridium perfringens.
A further assay relates to HT-29 cells. It is filed as cell-based, human.

In the case of Vitamin B12, the “level of extracellular NetB toxin secreted into the media” value (shortened to “level”) in the assay on NetB toxin is recorded as “reduced”.

As to `Cc1ncc(C[n+]2csc(CCO)c2C)c(N)n1` [Vitamin B1], in the assay with NetB toxin, the “level” value was “reduced”. On to `N[C@@H](CC(=O)O)C(=O)O` [aspartic acid], for which the “netB expression / toxin producing population in single cell data” value with netB gene is reported as “marked reduction”. Moreover, the “level” value in the assay with NetB toxin is listed as “lower the level”. Besides, the HT29 cell death result in the assay on HT-29 cells is recorded as “less than 10%”.

For the molecule `Cc1ncc(CO)c(CO)c1O.Cl` [Vitamin B6], the “level” value with NetB toxin was “reduced”. Regarding `NCCC[C@H](N)C(=O)O` [ornithine], the “netB expression / toxin producing population in single cell data” value with netB gene is listed as “small reduction”. Same read-out and setting: then `N=C(N)NCCC[C@H](N)C(=O)O` [arginine], with “small reduction”. On to ammonium phosphate, for which, in the assay with NetB toxin, the “level” value is reported as “reduced”. On the same count and under the same terms, next, `CC(=O)[O-].[Na+]` [sodium acetate]: “reduced”.

These data come from US20250120417A1, “FEED ADDITIVE COMPOSITIONS AND METHODS FOR USING THE SAME” (INT[…]&H DENMARK APS, priority 2021, published 2025).
